According to US4556660A, “N-(Bicyclic heterocyclyl)-4-piperidinamines” (Janssen Pharmaceutica N.V., priority 1983, dated 1985):
Read-outs that look alike come from different tables or passages of the source.

What was measured:
[1] = test system: compound 48/80-induced lethality; test: Protection of rats from compound 48/80-induced lethality; format: in vivo, Male rats of an inbred Wistar strain; settings: for ED50: Rattus norvegicus, 4 h, read-out: compound 48/80 lethality test rats-ED50
Method: Protection of rats from compound 48/80-induced lethality
The protection from compound 48/80-induced lethal circulatory collapse appears to be a simple way of evaluating quantitatively the antihistaminic activity of test compounds. Male rats of an inbred Wistar strain, weighing 240-260 g were used in the experiment. After overnight starvation the rats were transferred to conditioned laboratories (temp.=21±1° C., relative humidity-65±5%).
The rats were treated subcutaneously or orally with a test compound or with the solvent (NaCl solution, 0.9%). […] Survival after 4 hours is therefore considered to be a safe criterion of a protective effect of drug administration.
The ED50 -values of the compounds of formula (I) and the intermediates of formula (XVIII) are listed in the first column of table 1 and table 2. Said ED50 -values are the values in mg/kg body weight at which the tested compounds protect 50% of the tested animals against compound 48/80-induced lethality.

[2] = test system: serotonin; compound 48/80-induced gastric lesions; test: Antagonistic activity on the effects of serotonin in the gastric lesion test (lesions induced by compound 48/80); format: in vivo, Male rats of a Wistar inbred strain
Method: Antagonistic activity on the effects of serotonin in the gastric lesion test
Male rats of a Wistar inbred strain, weighing 220-250 g, were starved overnight, water being available ad libitum. The test compounds were administered orally as a solution or as a suspension in aqueous medium. A control rat and a "blank" rat received the test compound. One hour later 5-[4-(diphenylmethyl)-1-piperazinylmethyl]-1-methyl-1H-benzimidazole-2-methanol was administered subcutaneously to all rats at the dose of 2.5 mg/kg.
Four hours after the intravenous injection of compound 48/80, the rats were decapitated and the stomachs were removed. Subsequently the stomachs were inspected for distension and contents (blood, fluid, food) and thoroughly rinsed. The macroscopic lesions were scored from 0 to +++, 0 corresponding to complete absence of visible lesions and the highest score corresponding to reddish rough patches covering more than half the glandular area.

[3] = Rattus norvegicus, po; read-out: gastric lesion test ED50
[4] = Rattus norvegicus, po, read-out: gastric lesion test ED50

Molecule | ED50 [1] [mg/kg] | ED50 [2, 3] [mg/kg] | further results
COc1ccc2c(c1)nc(NC1CCN(CCNc3ncccn3)CC1)n2Cc1ccc(F)cc1 | 1.25 | 2.5 | 
Oc1ccc2c(c1)nc(NC1CCN(CCNc3ncccn3)CC1)n2Cc1ccc(F)cc1 | 0.16 | 2.5 | 
COc1ccc2nc(NC3CCN(CCNc4ncccn4)CC3)n(Cc3ccc(F)cc3)c2c1 | 1.25 | 2.5 | 
Fc1ccc(Cn2c(NC3CCN(CCNc4ncnc5ccccc45)CC3)nc3ccccc32)cc1 | 0.08 | 2.5 | 
3[(4-fluorophenyl)methyl]-N-[1-[2-[(2-pyridinyl)amino]ethyl]-4-piperidinyl]-3H-imidazo[4,5-b]pyridin-2-amine [Compound 23] |  |  | compound 48/80 lethality test rats-ED50 ([1]; rats, subcutaneous or oral, 1 h before compound 48/80 0.5 mg/kg i.v., 50% protected, survival after 4 h): 0.04 mg/kg body weight; gastric lesion test ED50 ([2]; rats, oral, 2 h before compound 48/80 1 mg/kg i.v.; stomach distension and glandular lesions completely absent in 50% of rats): 0.08 mg/kg body weight
OCCN1CCC(Nc2nc3cnccc3n2Cc2ccc(F)cc2)CC1 [CH2 CH2 OH 4-FC6 H4 CH2 -- 3 base] | 0.31 |  | 
OCCN1CCC(Nc2nc3ncccc3n2Cc2ccc(F)cc2)CC1 [CH2 CH2 OH 4-FC6 H4 CH2 -- 4 base] | 0.01 | 0.63 | 
Fc1ccc(Cn2c(NC3CCN(CCNc4ncccn4)CC3)nc3ccccc32)cc1 [Compound 1, 1-[(4-fluorophenyl)methyl]-N-[1-[2-[(2-pyrimidinyl)amino]ethyl]-4-piperidinyl]-1H-benzimidazol-2-amine] | 0.16 | 0.63 | 
Fc1ccc(Cn2c(NC3CCN(CCCCNc4ncccn4)CC3)nc3ccccc32)cc1 [Compound 2] | 0.16 | 2.5 | 
Fc1ccc(Cn2c(NC3CCN(CCCNc4ncccn4)CC3)nc3ccccc32)cc1 [Compound 4] | 0.16 |  | 
Fc1ccc(Cn2c(NC3CCN(CCNc4cc(Cl)ncn4)CC3)nc3ccccc32)cc1 [Compound 5] | 0.31 |  | 
Fc1ccc(Cn2c(NC3CCN(C4CCN(c5ncccn5)CC4)CC3)nc3ccccc32)cc1 [Compound 6] | 1.25 |  | 
CC(CN1CCC(Nc2nc3ccccc3n2Cc2ccc(F)cc2)CC1)Nc1ncccn1 (stereo not shown) [Compound 7] | 0.63 | 0.63 | 
Fc1ccc(Cn2c(NC3CCN(CCN(Cc4ccccc4)c4ncccn4)CC3)nc3ccccc32)cc1 [Compound 8] | 0.63 | 0.63 | 
CN(CCN1CCC(Nc2nc3ccccc3n2Cc2ccc(F)cc2)CC1)c1ncccn1 [Compound 10] | 0.08 | 0.63 | 
O=[N+]([O-])c1cccnc1N1CCC(N2CCC(Nc3nc4ccccc4n3Cc3ccc(F)cc3)CC2)CC1 [Compound 11] | 0.63 |  | 
Fc1ccc(Cn2c(NC3CCN(C4CCCN(c5ncccn5)C4)CC3)nc3ccccc32)cc1 (stereo not shown) [Compound 12] | 1.25 | 2.5 | 
O=[N+]([O-])c1ccc(NCCN2CCC(Nc3nc4ccccc4n3Cc3ccc(F)cc3)CC2)nc1 [Compound 13] | 0.31 | 2.5 | 
O=[N+]([O-])c1cc[n+]([O-])cc1NCCN1CCC(Nc2nc3ccccc3n2Cc2ccc(F)cc2)CC1 [Compound 14] | 0.04 | 1.25 | 
c1ccc(Cn2c(NC3CCN(CCNc4ncccn4)CC3)nc3ccccc32)nc1 [Compound 15] | 0.04 | 0.63 | 
c1cnc(NCCN2CCC(Nc3nc4ccccc4n3Cc3cccnc3)CC2)nc1 [Compound 17] | 1.25 |  | 
c1cnc(NCCN2CCC(Nc3nc4ccccc4n3Cc3cnccn3)CC2)nc1 [Compound 18] | 0.01 | 0.63 | 

Molecule | ED50 [1] [mg/kg] | ED50 [2, 3] [mg/kg] | further results
c1cnc(NCCN2CCC(Nc3nc4ccccc4n3Cc3cccs3)CC2)nc1 [Compound 19] | 0.02 | 2.5 | 
c1cnc(NCCN2CCC(Nc3nc4ccccc4n3Cc3ccoc3)CC2)nc1 [Compound 20] | 0.04 | 0.63 | 
Cc1ccc(Cn2c(NC3CCN(CCNc4ncccn4)CC3)nc3ccccc32)o1 [Compound 21] | 0.04 | 0.63 | 
Fc1ccc(Cn2c(NC3CCN(CCCCCNc4ncccn4)CC3)nc3ccccc32)cc1 [Compound 22] | 0.31 |  | ED50 [2, 4]: 0.08 mg/kg
NC(=O)c1cccnc1NCCN1CCC(Nc2nc3cccnc3n2Cc2ccc(F)cc2)CC1 [Compound 24, 2-[[2-[4-[[3-[(4-fluorophenyl)methyl]-3H-imidazo[4,5-b]pyridin-2-yl]amino]-1-piperidinyl]ethyl]amino]-3-pyridinecarboxamide] | 0.04 |  | ED50 [2, 4]: 0.04 mg/kg
Fc1ccc(Cn2c(NC3CCN(CCNc4ncccn4)CC3)nc3ncccc32)cc1 [Compound 25, 1-[(4-fluorophenyl)methyl]-N-[1-[2-[(2-pyrimidinyl)amino]ethyl]-4-piperidinyl]-1H-imidazo[4,5-b]pyridin-2-amine] | 0.02 | 0.16 | 
Fc1ccc(Cn2c(NC3CCN(CCNc4ncccn4)CC3)nc3cnccc32)cc1 [Compound 26, 1[(4-fluorophenyl)methyl]-N-[1-[2-(2-pyrimidinylamino]ethyl]-4-piperidinyl]1H-imidazo[4,5-c]pyridin-2-amine] | 0.08 |  | 
c1ccc(Cn2c(NC3CCN(CCNc4ncccn4)CC3)nc3cccnc32)nc1 [Compound 27, 3-(2-pyridinylmethyl)-N-[1-[2-(2-pyrimidinylamino)ethyl]-4-piperidinyl]3H-imidazo[4,5-b]pyridin-2-amine (E)-2-butenedioate (2:3)] | 0.04 | 2.5 | 
Fc1ccc(Cn2c(NC3CCN(CCNc4ncccn4)CC3)nc3ccncc32)cc1.O=C(O)/C=C/C(=O)O.O=C(O)/C=C/C(=O)O [Compound 29, 3-[(4-fluorophenyl)methyl]-N-[1-[2-[(2-pyrimidinyl)amino]ethyl]-4-piperidinyl]-3H-imidazo[4,5-c]pyridin-2-amine (E)-2-butenedioate (1:2)] | 0.16 |  | 
Cc1cc(NCCN2CCC(Nc3nc4ccccc4n3Cc3ccc(F)cc3)CC2)nc(N)n1 [Compound 35] | 0.31 |  | 
Cc1nc2ccccc2nc1NCCN1CCC(Nc2nc3ccccc3n2Cc2ccc(F)cc2)CC1 [Compound 41] | 1.25 |  | 
Fc1ccc(Cn2c(NC3CCN(CCNc4ccc5ccccc5n4)CC3)nc3ccccc32)cc1 [Compound 44] | 0.31 |  | 
Cc1cc(Cl)nc(NCCN2CCC(Nc3nc4ccccc4n3Cc3ccc(F)cc3)CC2)n1 [Compound 62, N-[1-[2-[(4-chloro-6-methyl-2-pyrimidinyl)amino]ethyl]-4-piperidinyl]-1-[(4-fluorophenyl)methyl]-1H-benzimidazol-2-amine] | 0.63 |  | 
Brc1ccc(OCCN2CCC(Nc3nc4ccccc4n3Cc3ccco3)CC2)nc1 [Compound 78, N-[1-[2-[(5-bromo-2-pyridinyl)oxy]ethyl]-4-piperidinyl]-1-(2-furanylmethyl)-1H-benzimidazol-2-amine] | 0.31 |  | 
Cc1nc2ccccc2nc1OCCN1CCC(Nc2nc3ccccc3n2Cc2ccc(F)cc2)CC1 [Compound 80, 1-[(4-fluorophenyl)methyl]-N-[1-[2-[(3-methyl-2-quinoxalinyl)oxy]ethyl]-4-piperidinyl]-1H-benzimidazol-2-amine] | 2.5 |  | 
Fc1ccc(Cn2c(NC3CCN(CCOc4ccc(Br)cn4)CC3)nc3ccccc32)cc1 [Compound 82, N-[1-[2-[(5-bromo-2-pyridinyl)oxy]ethyl]-4-piperidinyl]-1-[(4-fluorophenyl)methyl]-1H-benzimidazol-2-amine] | 0.16 |  | 
O=c1cc(Cc2ccccc2)[nH]c(NCCN2CCC(Nc3nc4ccccc4n3Cc3ccc(F)cc3)CC2)n1 [Compound 89, 2-[[2-[4-[[1-[(4-fluorophenyl)methyl]-1H-benzimidazol-2-yl]amino]-1-piperidinyl]ethyl]amino]-6-(phenylmethyl)-4-(1H)-pyrimidinone] | 0.63 |  | 
COc1cc(NCCN2CCC(Nc3nc4ccccc4n3Cc3ccc(F)cc3)CC2)ncn1 [Compound 98, 1-[(4-fluorophenyl)methyl]-N-[1-[2-[(6-methoxy-4-pyrimidinyl)amino]ethyl]-4-piperidinyl]-1H-benzimidazol-2-amine] | 0.16 |  | 
Fc1ccc(Cn2c(NC3CCN(CCc4cnccn4)CC3)nc3ccccc32)cc1 [Compound 101, 1-(4-fluorophenylmethyl)-N-[1-[2-(2-pyrazinyl)ethyl]-4-piperidinyl]-1H-benzimidazol-2-amine] | 0.31 |  | 
O=C(NCCN1CCC(Nc2nc3ccccc3n2Cc2ccc(F)cc2)CC1)c1cccnc1Cl [Compound 115, 2-chloro-N-[2-[4-[[1-[(4-fluorophenyl)methyl]-1H-benzimidazol-2-yl]amino]-1-piperidinyl]ethyl]-3-pyridinecarboxamide (E)-2-butenedioate (1:2) hemihydrate] | 0.16 |  | 
N#CCN1CCC(Nc2nc3cnccc3n2Cc2ccc(F)cc2)CC1 [Intermediate 81] | 0.63 |  | 
NCCN1CCC(Nc2nc3cnccc3n2Cc2ccc(F)cc2)CC1 [Intermediate 111] | 0.16 |  | 
